From patent US20240189279A1, “IMMUNOMODULATORY COMPOSITIONS AND METHODS OF USE THEREOF” (THE TEXAS A&M UNIVERSITY SYSTEM, priority 2022, published 2024)

System: free fatty acids
Test: Quantification of free fatty acids in liver and serum of WD mice
Assay type: in vivo, mice (male B6 129SF1/J)
Text: Animal experiments. Male B6 129SF1/J mice at 6 weeks of age were obtained from Jackson Laboratories (Bar Harbor, ME). Mice were acclimatized to the animal facility for one week. At the start of the experiment, mice were randomly divided into four groups (n=10 for each group). Three of the four groups were fed ad libitum a Western diet (WD) with 40% Kcal from fat and containing 0.15% cholesterol (D12079B, Research Diets) and a sugar water (SW) solution (23.1 g/L d-fructose+18.9 g/L d-glucose) as previously described (DIAMOND model (15)). After 8 weeks, the three groups of WD-fed mice were randomly selected for treatment with vehicle (WD group) or low (WD-50 group) or high dose (WD-100 group) of […]. The WD group was fed WD and drank sugar water. The WD-50 and WD-100 groups were fed WD and drank sugar water containing, respectively, 50 or 100 mg […] per kg body weight. […] Quantification of free fatty acids. Serum and liver FFAs were analyzed using targeted LC-MS experiments performed on a quadrupole-time of flight instrument (TripleTOF 5600+, AB Sciex, Framingham, MA) as previously described with minor modifications (Tables 2 and 5). […] Free fatty acids (FFAs) in the liver and serum were quantified using product ion scan experiments (TripleTOF 5600+, AB Sciex, Framingham, MA). […] “Light” experiments with low collision energy were used for quantification. […]

O=C([O-])Cc1c[nH]c2ccccc12.[Na+] [I3A, Indole-3-acetate sodium salt]
liver total FFA concentration, significance of I3A effect (I3A treatment vs WD): no significant effect | liver total FFA concentration, reduction (WD-100 group vs WD, p=0.11): 36 % reduction
